Results: patent US20220202897A1, “USE OF CYCLO(HIS-PRO) (CHP) FOR PREVENTING, AMELIORATING, OR TREATING FIBROSIS” (NOVMETAPHARMA CO., LTD., priority 2019, published 2022)

Tests used:
[1] = tested on: human-derived proximal tubular epithelial cells; assay: Cytological morphology after CHP treatment in a human-derived proximal tubular epithelial cell fibrosis model (TGFβ-induced); format: cell-based; details: recombinant TGFβ 2 ng/ml; CHP 4, 20 and 100 μg/ml; FIG. 2
[2] = tested on: human-derived proximal tubular epithelial cells; assay: Western blot of E-cadherin, fibronectin and pSTAT3 proteins in the human-derived proximal tubular epithelial cell fibrosis model; format: cell-based; details: TGFβ 2 ng/ml, CHP 4, 20 and 100 μg/ml, FIG. 3
Excerpt: Under the same conditions as in Example 1-2, the expression levels of proteins of E-cadherin, a junction marker, fibronectin, a fibrosis marker, and pSTAT3, a fibrosis transcription factor, after CHP administration were checked by Western blot.

[3] = tested on: human-derived glomerular endothelial cells; assay: Cytological morphology after CHP treatment in a human-derived glomerular endothelial cell fibrosis model (rTGFβ-induced); format: cell-based; details: rTGFβ 2 ng/ml; CHP 40 and 100 μg/ml; FIG. 4
Huh7 liver cell line = assay: Fibronectin protein expression (Western blot) in a human-derived hepatocyte fibrosis model; format: cell-based; details: Huh7 cells; TGFβ 2 ng/ml with CHP 250 ng/ml; 48 hours; corrected by GAPDH; FIG. 5
Procedure: DMEM medium and FBS were purchased from Hyclone for culturing the Huh7 liver cell line, and TGFβ for inducing fibrosis was purchased from R&D Systems. The cells were cultured in a DMEM medium supplemented with 10% FBS in a 5% CO2 incubator at 37° C., treated with TGFβ at a concentration of 2 ng/ml and treated with CHP at 0, 62.5, 125, or 250 ng/ml, and cells were harvested at 48 hours of treatment.
RIPA lysis buffer and Halt™ protease and phosphatase inhibitor cocktails was purchased from Thermo to analyze the expression of fibronectin protein, a fibrotic protein, and for protein quantification, BCA protein quantification kit was purchased from Thermo. […] The supernatant was collected, and the protein concentration was measured by BCA quantitation, and the protein was separated from the same amount of samples using the Bolt™ protein gel electrophoresis system, and transferred to a nitrocellulose membrane. […] After washing 3 times for 10 minutes with TBST, the expression level was measured by reacting with ECL. The size of the appearing band was quantified using the ImageJ program and corrected by dividing the fibronectin band size value by the GAPDH band size value. Statistical significance was analyzed using Student's t-test statistical method with the control group. #p<0.05 (negative control group: TGFβ treated control group).

[4] = tested on: animal model of liver fibrosis; assay: Fibronectin protein expression (Western blot) in liver tissue of a high-fat-diet animal model of liver fibrosis; format: in vivo, C57BL/6 mice; details: 60% fat high-fat diet mice; CHP 5 or 35 mg/kg orally once a day for 16 weeks; vs HFD control; effect stronger according to the concentration; FIG. 6
Procedure: (§1) For liver fibrosis experiments in animals, 12-week-old C57BL/6 mice fed a high-fat diet containing 60% fat for 6 weeks were purchased from Jackson, USA, and Research diets D12492, a 60% fat-containing high-fat dietary feed purchased from Saeron Bio, were ingested for 17 weeks. Mice were bred to allow free access to feed and water in an environment of 24±3° C. C57BL/6 mice fed a high-fat diet for 6 weeks were acclimatized to the breeding environment for 1 week, and their weights were measured and evenly divided into 3 groups as shown in Table 1. CHP was orally administered to each group at a concentration of 5 mg/kg or 35 mg/kg once a day for 16 weeks, and the same amount of distilled water was orally administered to the control group in the same manner.
Isoflurane required for anesthesia and dissection of mice was purchased from Hana Pharmaceutical, and Vetequip's RC2 Rodent Circuit Controller Anesthesia System was prepared. Phosphate buffered saline (PBS) was purchased from Hyclone. To isolate the mouse liver tissue, the mice were anesthetized by respiratory anesthesia with 3-3.5% isoflurane. After blood was drawn from the heart of anesthetized mice, the liver tissue was immediately excised and washed with PBS. […] Statistical significance was analyzed using the Student's t-test statistical method with HFD control group (*p<0.05, **p<0.01).

L-132 lung cell line = assay: Fibronectin protein expression (Western blot) in a human-derived lung cell fibrosis model; format: cell-based; details: L-132 cells; TGFβ 2 ng/ml with CHP 125 ng/ml; 48 hours; p<0.01 vs TGFβ-treated control; FIG. 7
Procedure: MEM medium and FBS were purchased from Hyclone for culturing the L-132 lung cell line, and TGFβ for inducing fibrosis was purchased from R&D Systems. The cells were cultured in a MEM medium supplemented with 10% FBS in a 5% CO2 incubator at 37° C., treated with TGFβ at a concentration of 2 ng/ml and treated with CHP at 0, 62.5, or 125 ng/ml, and cells were harvested at 48 hours of treatment.
Western blotting was performed in the same manner as in Example 3-2 to analyze the expression of fibronectin protein, a fibrotic protein. Statistical significance was analyzed using Student's t-test statistical method with the control (#p<0.05 (negative control group: TGFβ-treated control group), **p<0.01 (TGFβ-treated control group: CHP 125 ng/ml-treated group)).

[5] = tested on: animal model of pulmonary fibrosis; assay: TGFβ and Collagen 3 gene expression (real-time PCR) in lung tissue of a high-fat-diet animal model of pulmonary fibrosis; format: in vivo, C57BL/6 mice; details: high-fat diet mice; CHP 5 and 35 mg/kg orally once a day for 16 weeks; corrected by GAPDH; FIG. 8
[6] = tested on: HS68 skin fibroblast-derived cell line; assay: Fibronectin protein expression (Western blot) in a human-derived skin cell fibrosis model; format: cell-based; details: HS68 cells; TGFβ 2 ng/ml with CHP 500 ng/ml; 48 hours; p<0.05 vs TGFβ-treated control; FIG. 9
Procedure: DMEM medium and FBS were purchased from Hyclone for culturing the HS68 skin fibroblast-derived cell line, and TGFβ for inducing fibrosis was purchased from R&D Systems. The cells were cultured in a DMEM medium supplemented with 10% FBS in a 5% CO2 incubator at 37° C., treated with TGFβ at a concentration of 2 ng/ml and treated with CHP at 0, 62.5, 125, 250, or 500 ng/ml, and cells were harvested at 48 hours of treatment.
Western blotting was performed in the same manner as in Example 3-2 to analyze the expression of fibronectin protein, a fibrotic protein. Statistical significance was analyzed using Student's t-test statistical method with the control (#p<0.05 (negative control group: TGFβ-treated control group), *p<0.05 (TGFβ-treated control group: CHP 500 ng/ml-treated group)).

[7] = tested on: animal model of cardiac fibrosis; assay: Fibrosis marker gene expression (real-time PCR) in heart tissue of a high-fat-diet animal model of cardiac fibrosis; format: in vivo, C57BL/6 mice; details: high-fat diet mice; CHP 5 and 35 mg/kg orally once a day for 16 weeks; corrected by β-actin; no further decrease with concentration; FIG. 10
Procedure: as §1
For cardiac fibrosis experiments in animals, an animal model of cardiac fibrosis was established in the same manner as in Example 4-1.
Isoflurane required for anesthesia and dissection of mice was purchased from Hana Pharmaceutical, and Vetequip's RC2 Rodent Circuit Controller Anesthesia System was prepared. Phosphate buffered saline (PBS) was purchased from Hyclone. To isolate the mouse heart tissue, the mice were anesthetized by respiratory anesthesia with 3-3.5% isoflurane. After blood was drawn from the heart of the anesthetized mice, the heart tissue was immediately excised, 50 mg of the heart was cut out, and RNA extraction and gene expression analysis were performed in the same manner as in Example 6-2. The expression value of each gene was corrected by dividing by the expression value of (β-actin, a housekeeping gene.
Statistical significance was analyzed using one-way ANOVA statistical analysis, and the Dunnett post hoc test was used to compare the significance with the HFD control group (*p<0.05, **p<0.01, ****p<0.0001).

[8] = tested on: animal model of fat fibrosis; assay: Fibrosis marker gene expression (real-time PCR) in epididymal adipose tissue of a high-fat-diet animal model of fat fibrosis; format: in vivo, C57BL/6 mice; details: high-fat diet mice; CHP 5 and 35 mg/kg orally once a day for 16 weeks; corrected by GAPDH; FIG. 11
Procedure: as §1
For fat fibrosis experiments in animals, an animal model of fat fibrosis was established in the same manner as in Example 4-1.
Isoflurane required for anesthesia and dissection of mice was purchased from Hana Pharmaceutical, and Vetequip's RC2 Rodent Circuit Controller Anesthesia System was prepared. Phosphate buffered saline (PBS) was purchased from Hyclone. To isolate the mouse adipose tissue, the mice were anesthetized by respiratory anesthesia with 3-3.5% isoflurane. After blood was drawn from the heart of the anesthetized mice, the epididymal adipose tissue (EAT) was immediately excised, 100 mg of the fat was cut out, and RNA extraction and gene expression analysis were performed in the same manner as in Example 6-2. The expression value of each gene was corrected by dividing by the expression value of GAPDH, a housekeeping gene.
Statistical significance was analyzed using one-way ANOVA statistical analysis, and the Dunnett post hoc test was used to compare the significance with the control group (*p<0.05, **p<0.01).

## O=C1N[C@@H](Cc2cnc[nH]2)C(=O)N2CCC[C@@H]12 [CHP, Cyclo-HisPro]
[1]
  cytomorphological fibrosis (cytoskeletal remodeling and morphological changes): fibrosis was improved
[2]
  protein expression of E-cadherin (junction marker): restored
  protein expression of fibronectin (fibrosis marker): decreased
  protein expression of pSTAT3 (fibrosis transcription factor): decreased
[3]
  cytomorphological fibrosis (cytoskeletal remodeling and morphological changes): fibrosis was improved
Huh7 liver cell line
  expression level of fibronectin protein: showed a tendency to decrease
[4]
  expression level of fibronectin protein in liver tissue: significantly decreased
L-132 lung cell line
  expression level of fibronectin protein: significantly decreased
[5]
  expression of Collagen 3 gene in lung: decreased more significantly according to the CHP administration concentration
  expression of TGFβ gene in lung: decreased more significantly according to the CHP administration concentration
[6]
  expression level of fibronectin protein: significantly decreased
[7]
  expression of Collagen 1 gene in heart: significantly reduced
  expression of Collagen 3 gene in heart: significantly reduced
  expression of Collagen 4 gene in heart: significantly reduced
  expression of Fibronectin gene in heart: significantly reduced
  expression of TGFβ gene in heart: significantly reduced
[8]
  expression of CTGF gene in fat (epididymal adipose tissue): markedly reduced
  expression of Collagen 3 gene in fat (epididymal adipose tissue): markedly reduced
  expression of Fibronectin gene in fat (epididymal adipose tissue): markedly reduced
  expression of TGFβ gene in fat (epididymal adipose tissue): markedly reduced
